The record followed here is US6019988A, “Methods and compositions for enhancing skin permeation of drugs using permeation enhancers, when drugs and/or permeation enhancers are unstable in combination during long-term storage” (priority 1996, dated 2000).

Where only a bound is given, the exact number is not on record here.

Data set [1] can be described thus: Solubility in water- or oil-based formulations. In kind it is physicochemical.
For data set [2] the following is noted: not told.
Data set [3] in a line: Stability in pharmaceutical solvents / excipients at 30 and 40 °C.
Data set [4] in a line: Plasma concentration after topical application to hairless rats. In kind it is in vivo, hairless rat.

On to `CC(=C/C(=O)O)/C(=C/c1ccc2cc3c(cc2c1)C(C)(C)CCC3(C)C)c1cccc(C(=O)O)c1` [BMS-188184-01, (2Z,4Z)-3-methyl-4-(3-carboxyphenyl)-5-[(1,2,3,4-tetrahydro-1,1,4,4-tetramethyl)-6-anthracenyl]-2,4-pentadienoic acid], for which, in data set [1], the “solubility in water-based or oil-based formulations” value is on record as “virtually insoluble”.

Turning to `CC(=C/C(=O)O)/C(=C/c1ccc2cc3c(cc2c1)C(C)(C)CCC3(C)C)c1cccc(C(=O)O)c1` [BMS-188184, (2Z,4Z)-3-methyl-4-(3-carboxyphenyl)-5-[(1,2,3,4-tetrahydro-1,1,4,4-tetramethyl)-6-anthracenyl]-2,4-pentadienoic acid], the “long-term (storage) stability in formulations / with permeation enhancers” value in data set [2] is “stable in GEAHLENE base containing mineral oil and in petrolatum ointment containing fatty acid esters”. Further, the “shelf life in these solvents” value in data set [3] (30° C., propylene glycol, Transcutol, ethanol SD-40, PEG-8, water) is given as “less than 10 days”. The “stability in various pharmaceutical solvents” value in data set [3] (propylene glycol, Transcutol, ethanol SD-40, PEG-8, water, 30° C. and 40° C.) was “poor”.

For `CC(=C/C(=O)O)/C(=C/c1ccc2cc3c(cc2c1)C(C)(C)CCC3(C)C)c1cccc(C(=O)O)c1` [BMS-188184-05], the share remaining at 240 h in data set [3] (pharmaceutical solvents) was below 90%.

As to `CC(=C/C(=O)O)/C(=C/c1ccc2cc3c(cc2c1)C(C)(C)CCC3(C)C)c1cccc(C(=O)O)c1` [BMS-188184-02, (2Z,4Z)-3-methyl-4-(3-carboxyphenyl)-5-[(1,2,3,4-tetrahydro-1,1,4,4-tetramethyl)-6-anthracenyl]-2,4-pentadienoic acid], the “concentration of drug in plasma” value in data set [4] (by 6 hours after topical application) is listed as “below the limit of detection”. The Cmax in data set [4] (rat, plasma, topical or ocular, dual system 2% ointment + SLS cream, single topical dose, read-out: peak plasma concentrations) came to 2400 ng/mL. Besides, the Tmax in data set [4] (rat, plasma, topical or ocular, dual system 2% ointment + SLS cream, single topical dose, read-out: time of peak plasma concentrations) was determined as 2 h. The “solubility in water-based or oil-based formulations” value in data set [1] is recorded as “soluble”.

Usually share remaining stands for the share of the starting amount still present when the sample was taken. A high value points to greater stability.
